Measurements from US10869874B2, “Methods and compositions for topical delivery of prostaglandins to subcutaneous fat” (Topokine Therapeutics, Inc., priority 2013, dated 2020).

Legend:
abdominal fat = assay: randomized placebo-controlled trial for reduction of abdominal fat; format: in vivo, human; conditions: compared to vehicle alone
Source text: The following experiment describes a randomized, placebo-controlled, double-blind trial in human subjects to test whether the safety and efficacy of a PFPRA pharmaceutical composition for reduction of abdominal fat. The composition can be, for example, as described in Example 1, wherein the PFPRA is latanoprost. Alternatively, the PFPRA can be tafluprost. Other alternatives within the scope of the invention can also be used. Eligible subjects (for example, n=60) with excess anterior abdominal fat are entered into a randomized double-blind study. […] Subjects are instructed to apply, once a day, a metered dose, for example, of 2 ml over a 200 cm^2 application area on the anterior abdomen. The application area is standardized, for example, by use of a template that is centered on the umbilicus. Serial clinical assessments, subjective patient assessments, photographs, and magnetic resonance imaging (MRI) scans are performed prior to the first dose and then, for example, at 6 and 12 weeks. Treatment continues, for example, for a total of 12 weeks.

[1] = skin permeation ex vivo, Franz-type diffusion cell; format: in vitro ADME, human; conditions: free acid recovered in dermis and receptor fluid
Experimental: Skin permeation studies were conducted with various formulations of latanoprost, ex vivo, on fresh human skin. Fresh human skin was obtained from live donors undergoing abdominoplasty and mounted on a standard (Franz-type) diffusion cell apparatus. All test articles contained 0.8% (weight/weight) of latanoprost. Each test article (8 mg) was uniformly applied to a skin surface of 0.8 cm^2. All formulations were tested on skin from at least two different donors. Treated skin was left open to the atmosphere to simulate clinical conditions. Receptor fluid flowed continuously over 24 hours and was collected in fractions. The amount of active drug metabolite (latanoprost free acid) in these fractions was determined by Liquid Chromatography/Tandem Mass Spectrometry. The following amounts of drug were recovered from receptor fluid over 24 hours:
Skin permeation studies were conducted with various formulations of latanoprost 0.5%, ex vivo, on fresh human skin, as described in the foregoing example. All formulations comprised ethanol (70%) and oleic acid (1.5%, 3% or 4.5%) with the remainder essentially as propylene glycol (28.5%, 27% or 25.5%, respectively). All studies were run in duplicate.

SMILES | satisfaction with cosmetic appearance (abdominal fat) | conversion of prodrug in skin samples [1]
CC(C)OC(=O)CCC/C=C\C[C@@H]1[C@@H](CC[C@@H](O)CCc2ccccc2)[C@H](O)C[C@@H]1O [latanoprost] | more satisfied with their cosmetic appearance | converted (hydrolyzed) to the active metabolite, latanoprost free acid
CC(C)OC(=O)CCC/C=C\C[C@@H]1[C@@H](/C=C/C(F)(F)COc2ccccc2)[C@H](O)C[C@@H]1O [tafluprost] | more satisfied with their cosmetic appearance | –
